Measured values as given in patent US20130210907A1, “METHOD FOR PREVENTING OR TREATING ENTEROCHROMAFFIN CELL HYPERPLASIA-RELATED DISEASES BY QUERCETIN ADMINISTRATION” (HONG KONG BAPTIST UNIVERSITY, priority 2012, published 2013).

Experiments:
PI-IBS rats = assay: Abdominal withdrawal reflex (AWR) test: pain threshold pressure to colorectal distension; format: in vivo, rat; conditions: for Pain threshold pressure, after treatment: 2 weeks
Protocol: Sprague-Dawley male rats (Laboratory Animal Services Centre, The Chinese University of Hong Kong) aged 6 weeks with body weight around 220 g are used to develop PI-IBS model. Briefly, rats are fasted for 24 h, and deeply anesthetized with chloral hydrate (350 mg.kg^−1, i.p.). After induction of colitis by 2,4,6-trinitrobenzenesulfonic acid solution (TNBS, 5 mg/0.8 ml/rat, in 50% ethanol, 8 cm from anus) administration, the rats are allowed to recover for at least 4 weeks before use. The control rats are similarly administered with 0.8 ml saline instead of TNBS. Only the rats that have completely recovered from the initial inflammation and acquired visceral hypersensitivity are used as the PI-IBS rats.
6 groups of 12 rats are tested. Normal rats (Group 1) are treated with water. PI-IBS rats are randomly divided into 5 groups and orally treated with water (Group 2), Doxantrazole (mast cell stabilizer, 30 mg/kg/d, Group 3), and Quercetin (Group 4-6) at the dose of 5, 10, and 20 mg/kg/d, respectively. After 2 weeks daily drug administration, 5 rats in each group are used to measure pain threshold pressure by abdominal withdrawal reflex (AWR) test, and the remaining […] is used for electromyography (EMG) recording.
AWR test is performed as previously described in Al-Chaer E D, Kawasaki M, Pasricha P J. A new model of chronic visceral hypersensitivity in adult rats induced by colon irritation during postnatal development. Gastroenterology. 2000 November; 119(5):1276-85. Briefly, rats are lightly anesthetized with ether; a latex balloon is inserted into the descending colon. Rats are then allowed to recover for about 1 h. The tube of the balloon is connected via a Y-connector to a sphygmomanometer and colorectal distension is applied in increments of 5 mmHg until a visible contraction of the abdominal wall is observed by an investigator blinded to the treatment. The pain threshold pressure is defined as the intensity of colorectal distension (CRD) that elicited an observable AWR, i.e. a sudden and persistent abdominal muscle contraction with abdomen lift off the platform. The pain threshold pressure of all groups is recorded and repeated five times with intervals of at least 5 minutes for recovery. EMG recording are conducted as previously described in Tammpere A, Brusberg M, Axenborg J, Hirsch I, Larsson H, Lindstrom E. Evaluation of pseudo-affective responses to noxious colorectal distension in rats by manometric recordings. Pain. 2005 August; 116(3):220-6 and Li Z, Zhang X J, Xu H X, Sung J J, Bian Z X. Intracolonical administration of protease-activated receptor-2 agonists produced visceral hyperalgesia by up-regulating serotonin in the colon of rats. Eur J. Pharmacol. 2009 Mar. 15; 606(1-3):199-204. Firstly, a surgical operation is made to implant the electrodes into the left external abdominal oblique muscles 7 days before EMG recording. After the last drug administration, a flexible latex balloon is inserted into the rat descending colon, and the rats are allowed to accommodate for 1 h. CRD is initiated, and the EMG signal is amplified and filtered by Power Lab System. Graded colorectal distension (20, 40, 60, and 80 mmHg; 20 s duration; 2 min inter-stimulus interval) is carried out for total three cycles to each rat. The changes of area under the curve (AUC) are calculated using that during 20 s distension period over the 20 s baseline.

p-Cdc-2 = assay: Western blot of p-Cdc-2 in QGP-1 cells; format: cell-based, human; conditions: QGP-1, 50-100 μM, 24 h
Protocol: (§1) After drug treatment, the cells are lysed and centrifuged to collect the protein extract After determination of protein content, the samples protein are denatured at 100° C. for 5 min Proteins are separated by 10-12% SDS-PAGE and transferred to PVDF membranes (Bio-Rad, CA). After blocking with 5% nonfat milk for 1 h at room temperature, the membranes are incubated overnight at 4° C. with primary antibodies (mouse anti-cyclin BE 1:500, Abcam; goat anti-p-Cdc2:1:500, Santa Cruz; mouse anti-p21: 1:500, BD Bioscience). After washing three times in TBST, the membranes where incubated with the appropriate secondary antibodies (1:2000, Invitrogen) for 1 h at room temperature. The immunoreaction is detected using ECL Western blotting kit (ECL, Amersham, UK). Bands are visualized on Biomax X-ray film, and optical density of each band is semi-quantified by software (Image J.NIH). In order to adjust for any variations in loading, all detected protein bands are normalized to β-actin levels.

p21 = assay: Western blot of p21 in QGP-1 cells; format: cell-based, human; conditions: QGP-1, 50-100 nM (so in the source), 24 h
Protocol: as §1

QGP-1 cells [1] = assay: Apoptosis by DAPI staining, fluorescence microscopy; format: cell-based, human; conditions: QGP-1, 25~100 μM, 24 h
Protocol: Cells are seeded on coverslips in 24-well plate at the density of 100,000 cells per well and cultured overnight. After exposure to DMSO (control) or different concentration of Quercetin for 24 h, cells are washed three times and fixed with 4% paraformaldehyde for 20 min at room temperature. After washing in PBS, cells are permeabilized in 0.2% tritonX-100 for 10 min and stained with DAPI (20 μg/ml) for 10 min at room temperature in darkness. Slides are examined with a laser scanning microscope (Olympus Fluoview FV1000) 40× magnification. Three hundred cells are counted per slide randomly as previously reported in Ramage L, Jones A C, Whelan C J. Induction of apoptosis with tobacco smoke and related products in A549 lung epithelial cells in vitro. J Inflamm (Lond). 2006; 3:3. Apoptosis cells condense or fragment nuclear chromatin with or without apoptotic bodies, while normal cells have typical morphology with smooth nuclear and membrane.

QGP-1 cells [2] = assay: Sub-G0/G1 fraction by flow cytometry; format: cell-based, human; conditions: QGP-1, 25~100 μM, 24 h
Protocol: QGP-1 cells are seeded at a density of 10×10^4 cells/ml and pre-incubated overnight. After incubation with or without Quercetin (0-100 μM) for 24 h, cells are harvested by trypsinization and fixed in 70% ethanol at 4° C. overnight. The cells are centrifuged to remove ethanol and washed twice using ice-cold PBS. The cell pallets are resuspended in 500 n1 propidium iodide solution (0.1% Triton X-100, 50 μg/ml propidium iodide in PBS) containing 50 μg/ml RNase and incubated at 37° C. for 30 min and protected from the light. The DNA content of 10,000 cells is detected by BD FASCanto Flow Cytometry and analyzed using CellFit software (Becton Dickinson, Heidelberg, Germany). The data are representative of those obtained in at least three experiments.
For flow cytometric analysis, cells with sub-G0/G1 DNA content are stained with propidium iodide, and the methods are as described in section 2 of Example 8. […] Based on the results form LDH assay and apoptosis detection, Quercetin indeed has cytotoxicity and can further induce cell apoptosis.

humans = conditions: 1000 mg/kg/day orally for several months; cited from earlier work

## O=c1c(O)c(-c2ccc(O)c(O)c2)oc2cc(O)cc(O)c12 [Quercetin, 2-(3,4-dihydroxyphenyl)-3,5,7-trihydroxy-4H-chromen-4-one]
PI-IBS rats; 5 mg/kg i.g. daily
  Pain threshold pressure, after treatment: 32 ± 1.9 mmHg
PI-IBS rats; 5 mg/kg i.g. group
  Pain threshold pressure, before treatment: 25 ± 1.9 mmHg
PI-IBS rats; 10 mg/kg i.g. daily
  Pain threshold pressure, after treatment: 33 ± 1.8 mmHg
PI-IBS rats; 10 mg/kg i.g. group
  Pain threshold pressure, before treatment: 25 ± 1.1 mmHg
PI-IBS rats; 20 mg/kg i.g. daily
  Pain threshold pressure, after treatment: 35 ± 1.3 mmHg
PI-IBS rats; 20 mg/kg i.g. group
  Pain threshold pressure, before treatment: 24 ± 1.1 mmHg
p-Cdc-2
  Protein level of p-Cdc-2: significantly decrease
p21
  Protein level of p21: significantly increased
QGP-1 cells [1]
  Apoptosis rate: concentration-dependently increases
QGP-1 cells [2]
  Sub-G0/G1 fraction: concentration-dependently increases
humans
  Toxicity on oral administration to humans: no toxicity
